According to patent publication US6472526B1, “Imidazole derivatives having an inhibitory activity for farnesyl transferase and process for preparation thereof” (LG Chemical Ltd., priority 1997, dated 2002):

What was measured:
Ras farnesyl transferase [1] = biological target: T1, Ras farnesyl transferase (Rattus norvegicus, UniProt Q02293+Q04631); test: In vivo (cellular) inhibitory activity for Ras farnesyl transferase, Rat2 cell line transformed with fused protein of H-Ras substituted with polybasic lysine domain at C-terminus of K-Ras; type: cell-based; conditions: Rat2 cell line transformed with H-Ras fused with polybasic lysine domain of K-Ras C-terminus; concentration inhibiting 50% of farnesyl bonding; read-out: K-Ras CIC50
T1 construct: endogenous in cells; host or cells: Rat2 fibroblasts transformed with H-Ras or with an H-Ras/K-Ras C-terminus fusion
Procedure, shortened: (§1)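 Farnesylated versus unfarnesylated Ras bands were measured by autoradiography after Y13-259 immunoprecipitation and SDS-PAGE, giving CIC50 as 50% inhibition of farnesylation. Rat2 cells expressing H-Ras or an H-Ras fusion with K-Ras polybasic C-terminus got compound (1% DMSO), then [35S]methionine from 4 h onward for 20 h.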

Ras farnesyl transferase [2] = biological target: T2, Ras farnesyl transferase (Homo sapiens, UniProt P49354+P49356); test: In vitro inhibitory activity for Ras farnesyl transferase, K-Ras substrate; type: biochemical; conditions: in vitro farnesyl transferase assay, K-Ras; read-out: K-Ras IC50
T2 construct: made in house

Ras farnesyl transferase [3] = biological target: T1, Ras farnesyl transferase; test: In vivo (cellular) inhibitory activity for Ras farnesyl transferase, Rat2 cell line which expresses C-Harvey-Ras protein; type: cell-based; conditions: Rat2 cell line expressing C-Harvey-Ras; concentration inhibiting 50% of farnesyl bonding of Ras protein; read-out: H-Ras CIC50
Procedure, shortened: as §1

Ras farnesyl transferase [4] = biological target: T2, Ras farnesyl transferase; test: In vitro inhibitory activity for Ras farnesyl transferase, H-Ras substrate; type: biochemical; conditions: recombinant farnesyl transferase 4.5 nM, Ras substrate protein 1.5 μM, tritium-farnesylpyrophosphate 0.15 μM, 30 minutes at 37° C.; read-out: H-Ras IC50

Row | SMILES | IC50 (Ras farnesyl transferase [1]) | IC50 (Ras farnesyl transferase [2]) | IC50 (Ras farnesyl transferase [3]) | IC50 (Ras farnesyl transferase [4])
1 | CN1CCN(C(=O)c2cn(Cc3cncn3Cc3ccccc3Cl)cc2-c2cccc3ccccc23)CC1 [Compound 133, 1-[1-(2-Chlorobenzyl)-1H-imidazol-5-yl]methyl-3-(4-methylpiperazin-1-yl)carbonyl-4-(naphthalen-1-yl)-1H-pyrrole] | 10000 to 50000 nM | 2 nM | 25 nM | 0.65 nM
2 | COCCN(C)C(=O)c1cn(Cc2cncn2Cc2ccc(F)cc2)cc1-c1cccc2ccccc12 [Compound 127, 1-[1-(4-fluorobenzyl)-1H-imidazol-5-yl]methyl-3[N-(2-methoxyethyl)-N-methyl]carbamoyl-4-(naphthalen-1-yl)-1H-pyrrole] | 5000 nM | 5 nM | 15 nM | 2 nM
3 | COCCN(C)C(=O)c1cn(Cc2cncn2C)nc1-c1cccc2ccccc12 [Compound 157, 1-[1-Methyl-1H-imidazol-5-ylmethyl]-4-[N-(2-methoxyethyl)-N-methyl]-carbamoyl-3-(naphthalen-1-yl)-1H-pyrazole] | > 50000 nM | 5000 nM | 100 nM | 10 nM
4 | Cn1cnc(Cn2cc(C(=O)c3ccc(Oc4ccccc4)cc3)c(-c3cccc4ccccc34)c2)c1 [Compound 79, 1-(1-Methyl-1H-imidazol-4-yl)methyl-4-(naphthalen-1-yl)-3-(4-phenoxybenzoyl)-1H-pyrrole] | > 50000 nM | 100 nM | 100 nM | 5 nM
5 | CN1CCN(C(=O)c2cn(Cc3cncn3Cc3cccc(Cl)c3)cc2-c2cccc3ccccc23)CC1 [Compound 131, 1-[1-(3-Chlorobenzyl)-1H-imidazol-5-yl]methyl-3-(4-methylpiperazin-1-yl)carbonyl-4-(naphthalen-1-yl)-1H-pyrrole] | 10000 to 50000 nM | 2.3 nM | 12.5 nM | 1 nM
6 | CN1CCN(C(=O)c2cn(Cc3cncn3CCc3ccccc3F)cc2-c2cccc3ccccc23)CC1 [Compound 22, 1-[1-(2-Fluoro)phenethyl-1H-imidazol-5-yl]methyl-3-[4-methylpiperazin-1-yl]carbonyl-4-(naphthalen-1-yl)-1H-pyrrole] | 10000 to 50000 nM | 2 nM | 20 nM | 1 nM
7 | COCCN(C)C(=O)c1cn(Cc2cncn2CCc2cccc3ccccc23)cc1-c1cccc2ccccc12 [Compound 31, 3-[N-(2-Methoxyethyl)-N-methyl]carbamoyl-4-(naphthalen-yl)-1-{1-[2-(naphthalen-1-yl)ethyl]-1H-imidazol-5-yl}methyl-1H-pyrrole] | 10000 to 20000 nM | 5 nM | 12 nM | 2 nM
8 | N#Cc1ccc(Cn2cncc2Cn2cc(C(=O)c3cccc(Br)c3)c(-c3cccc4ccccc34)c2)cc1 [Compound 76] | 10000 to 100000 nM | 100 to 10000 nM | 100 to 1000 nM | 4 nM
9 | O=C(c1cn(Cc2c[nH]cn2)cc1-c1cccc2ccccc12)N1CCSCC1 [Compound 86] | > 50000 nM | 100 to 10000 nM | 2000 nM | 30 nM
10 | COCCN(C)C(=O)c1cn(Cc2cncn2CCc2ccc(Br)cc2)cc1-c1cccc2ccccc12 [Compound 33, 1-[1-(4-Bromo)phenethyl-1H-imidazol-5-yl]methyl-3-[N-(2-methoxyethyl)-N-methyl]carbamoyl-4-(naphthalen-1-yl)-1H-pyrrole] | 10000 to 50000 nM | 3 nM | 18 nM | 2 nM
11 | Cc1ccc(Cn2cncc2Cn2cc(C(=O)N3CCOCC3)c(-c3cccc4ccccc34)c2)cc1 [Compound 137] | 10000 to 20000 nM | 2.1 nM | 20 nM | 1.7 nM
12 | O=C(c1cn(CCn2ccnc2)cc1-c1cccc2ccccc12)N1CCOCC1 [Compound 106] | 10000 to 100000 nM | 10000 to 100000 nM | 1000 to 50000 nM | 900 nM
13 | O=C(c1cn(Cc2cncn2CCc2ccccc2)cc1-c1cccc2ccccc12)N1CCOCC1 [Compound 15] | 10000 to 50000 nM | 10 nM | 25 nM | 5 nM
14 | CCCCc1c(-c2cccc3ccccc23)c(C(=O)c2ccc(Cl)cc2Cl)cn1Cc1c[nH]cn1 [Compound 71] | 10000 to 100000 nM | 100 to 10000 nM | 1000 to 50000 nM | 120 nM
15 | O=C(c1cn(Cc2cncn2Cc2ccc(Br)cc2)nc1-c1cccc2ccccc12)N1CCOCC1 [Compound 160, 1-[1-(4-Bromobenzyl)-1H-imidazol-5-ylmethyl]-4-(morpholin-4-yl)carbonyl-3-(naphthalen-1-yl)-1H-pyrazole] | 40000 nM | 3000 nM | 1500 nM | 300 nM
16 | CCOC(=O)c1nc(Cc2cnc[nH]2)oc1-c1cccc2ccccc12 [Compound 142, 4-Ethoxycarbonyl-2-(1H-imidazol-5-ylmethyl)-5-(naphthalen-1-yl)oxazole] | > 50000 nM | > 50000 nM | > 50000 nM | 12000 nM
17 | COCCN(C)C(=O)c1cn(Cc2cncn2CCc2ccccc2OC)cc1-c1cccc2ccccc12 [Compound 17, 3-[N-(2-Methoxyethyl)-N-methyl]carbamoyl-1-[1-(2-methoxy)phenethyl-1H-imidazol-5-yl]methyl-4-(naphthalen-1-yl)-1H-pyrrole] | 10000 to 50000 nM | 3 nM | 25 nM | 2 nM
18 | COCCN(C)C(=O)c1cn(Cc2cncn2CCc2ccccc2)cc1-c1cccc2ccccc12 [Compound 14, 3-[N-(2-Methoxyethyl)-N-methyl]carbamoyl-4-(naphthalen-1-yl)-1-[1-(phenethyl)-1H-imidazol-5-ylmethyl]-1H-pyrrole] | 10000 to 50000 nM | 5 nM | 12.5 nM | 2 nM
19 | COCCN(C)C(=O)c1cn(Cc2cncn2C)cc1-c1cccc2ccccc12 [Compound 114, 3-[N-(2-Methoxyethyl)-N-methyl]carbamoyl-1-(1-methyl-1H-imidazol-5-yl)methyl-4-(naphthalen-1-yl)-1H-pyrrole] | < 100000 nM | 100 nM | 15 nM | 1 nM

Next, values leading:

Row | IC50 (Ras farnesyl transferase [1]) | IC50 (Ras farnesyl transferase [2]) | IC50 (Ras farnesyl transferase [3]) | IC50 (Ras farnesyl transferase [4]) | SMILES
20 | 10000 to 100000 nM | 100 to 10000 nM | 1000 to 50000 nM | 900 nM | N#Cc1ccc(CNC(=O)c2cn(Cc3c[nH]cn3)cc2-c2cccc3ccccc23)cc1 [Compound 98]
21 | 10000 to 100000 nM | 100 to 10000 nM | 1000 to 50000 nM | 320 nM | O=C(NCCO)c1cn(Cc2c[nH]cn2)cc1-c1cccc2ccccc12 [Compound 93]
22 | 10000 to 100000 nM | 100 to 10000 nM | 1000 to 50000 nM | 300 nM | COc1cccc(C(=O)c2cn(Cc3c[nH]cn3)cc2-c2cccc3ccccc23)c1 [Compound 53]
23 | 10000 to 50000 nM | 100 to 1000 nM | 10 to 100 nM | 0.7 nM | COCCN(C)C(=O)c1cn(Cc2c[nH]cn2)cc1-c1cccc2ccccc12 [Compound 95]
24 | 10000 to 100000 nM | 100 to 10000 nM | 1000 to 50000 nM | 230 nM | CSCCOc1ccc(C(=O)c2cn(Cc3c[nH]cn3)cc2-c2cccc3ccccc23)cc1 [Compound 63]
25 | 10000 to 100000 nM | 100 to 10000 nM | 1000 to 50000 nM | 90 nM | O=C(c1ccccc1Br)c1cn(Cc2c[nH]cn2)cc1-c1cccc2ccccc12 [Compound 47]
26 | 10000 to 100000 nM | 100 to 10000 nM | 1000 to 50000 nM | 420 nM | O=C(c1cccc(-c2ccccc2)c1)c1cn(Cc2c[nH]cn2)cc1-c1cccc2ccccc12 [Compound 65]
27 | 10000 to 100000 nM | 200 nM | 100 nM | 4.5 nM | Cn1cnc(Cn2cc(C(=O)c3ccc(F)cc3)c(-c3cccc4ccccc34)c2)c1 [Compound 78, 3-(4-Fluorobenzoyl)-1-(1-methyl-1H-imidazol-4-yl)methyl-4-(naphthalen-1-yl)-1H-pyrrole]
28 | 10000 to 100000 nM | 100 to 10000 nM | 1000 to 50000 nM | 570 nM | O=C(c1ccc(F)cc1F)c1cn(Cc2c[nH]cn2)cc1-c1cccc2ccccc12 [Compound 59]
29 | < 10000 nM | 6 nM | < 50 nM | 0.5 nM | N#Cc1ccc(Cn2cncc2Cn2cc(C(=O)N3CCOCC3)c(-c3cccc4ccccc34)c2)cc1 [Compound 104]
30 | 10000 to 100000 nM | 100 to 10000 nM | 1000 to 50000 nM | 250 nM | O=C(c1cccs1)c1cn(Cc2c[nH]cn2)cc1-c1cccc2ccccc12 [Compound 44, 1-(1H-Imidazol-4-yl)methyl-4-(naphthalen-1-yl)-3-(thiophen-2-yl)carbonyl-1H-pyrrole]
31 | > 50000 nM | 100 to 10000 nM | 3000 nM | 20 nM | O=C(c1ccc(Oc2ccccc2)cc1)c1cn(Cc2c[nH]cn2)cc1-c1cccc2ccccc12 [Compound 67]
32 | 10000 to 100000 nM | 100 to 10000 nM | 1000 to 50000 nM | 680 nM | CSCC[C@H](NC(=O)c1cn(Cc2c[nH]cn2)cc1-c1cccc2ccccc12)C(=O)O [Compound 81, (S)-3-[N-(1-Hydroxycarbonyl-3-methylthio)propyl]carbamoyl-1-(1H-imidazol-4-yl)methyl-4-(naphthalen-1-yl)-1H-pyrrole]
